Assay results as given in publication PMC4336611 (Chemistry & biology, 2015).

Target: LPA2 (Homo sapiens, UniProt Q9HBW0)
Type: cell-based

Chain of LPA2 (Q9HBW0 whole entry): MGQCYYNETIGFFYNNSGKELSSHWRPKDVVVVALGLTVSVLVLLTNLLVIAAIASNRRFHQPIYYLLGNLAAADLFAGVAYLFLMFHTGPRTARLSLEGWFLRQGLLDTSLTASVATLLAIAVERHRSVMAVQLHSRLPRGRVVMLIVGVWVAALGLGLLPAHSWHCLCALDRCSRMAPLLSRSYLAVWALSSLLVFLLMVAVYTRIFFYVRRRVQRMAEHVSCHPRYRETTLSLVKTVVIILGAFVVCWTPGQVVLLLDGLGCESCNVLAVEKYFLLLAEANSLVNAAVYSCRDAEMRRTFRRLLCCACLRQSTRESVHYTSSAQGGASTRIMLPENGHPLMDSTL

Structure (SMILES): O=C(O)c1ccccc1S(=O)(=O)NCCCCN1C(=O)c2cccc3cccc(c23)C1=O [DBIBB, 2-[4-(1,3-Dioxo-1H,3H-benzo[de]isoquinolin-2-yl)butylsulfamoyl] benzoic acid]
- EC50: ~100 nM
